This assay concerns the target T1, human ProRS (prolyl tRNA synthetase moiety of glutamyl prolyl tRNA synthetase, EPRS) (Homo sapiens, UniProt P07814).
T1 construct: The prolyl tRNA synthetase moiety (ProRS) in the cDNA of glutamyl prolyl tRNA synthetase was subcloned; 6xHis (N, cleaved yes); made in house; host or cells: E. coli BL21 (DE3)
T1 sequence (P07814 1007-1512 limits assumed): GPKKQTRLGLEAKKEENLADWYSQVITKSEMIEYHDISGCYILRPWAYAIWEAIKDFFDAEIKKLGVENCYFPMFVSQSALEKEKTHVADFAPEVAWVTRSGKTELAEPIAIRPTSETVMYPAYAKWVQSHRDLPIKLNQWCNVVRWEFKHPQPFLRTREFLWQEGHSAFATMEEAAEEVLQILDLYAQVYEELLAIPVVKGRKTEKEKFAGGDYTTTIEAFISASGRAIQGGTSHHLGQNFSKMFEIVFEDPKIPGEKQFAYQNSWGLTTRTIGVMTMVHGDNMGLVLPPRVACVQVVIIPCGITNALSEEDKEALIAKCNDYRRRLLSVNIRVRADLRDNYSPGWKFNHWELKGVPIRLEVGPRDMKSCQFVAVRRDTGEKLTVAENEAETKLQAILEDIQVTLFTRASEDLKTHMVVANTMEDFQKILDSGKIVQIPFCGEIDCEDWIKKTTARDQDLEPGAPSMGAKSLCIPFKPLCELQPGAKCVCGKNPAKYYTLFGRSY
Description: Assay for inhibitors of prolyl tRNA synthetase activity (ProRS assay, labeled proline incorporation). Type of assay: biochemical. The conditions noted are these: human ProRS 20 nM, 10 min at 37° C.; read-out: EPRS IC50. An excerpt: In order to establish the activities of the compounds highlighted above, we determined extent of inhibition of prolyl tRNA synthetase activity in dose response curves to obtain IC50 values.
The prolyl tRNA synthetase moiety (ProRS) in the cDNA of glutamyl prolyl tRNA synthetase was subcloned, tagged with a single biotin, purified and used in the assay.
Briefly, human ProRS with a 6×N-terminal His tag in pET28N with TVMV BioP was transformed in E. coli BL21 (DE3) cells, selected, overexpressed and purified using a Ni Seph 6 FF XK 16/20 column in the first stage. Ni-NTA eluates were pooled and treated with TVMV protease, and biotinylated using d-Biotin, MgCl2, ATP and the BirA enzyme. This was rerun through a Ni column as before. The eluates were further enriched and purified using membrane ultrafiltration and a SuperDex 200 XK 16/60 column, and peak fractions were confirmed by SDS-PAGE prior to protein amount determination, aliquoting and storage at −80° C. • ProRS assay was performed in 96 well plates in a final reaction volume of 20 μl, using staggered additions of Tris-Cl (pH 7.5, 60 mM), dithiothreitol (2 mM), ATP (5 mM, pH 7.0), MgCl2 6 mM), ProRS (20 nM, with pre-determined active fraction range) and bovine tRNA (20 μg). Controls and compounds, at various concentrations (10 μM to 0.5 nM), were incubated on ice with enzyme mix for 15 min followed by addition of proline (non-labeled and labeled, 3.96 and 1.04 μM (1 μCi) respectively) to initiate the reaction. Reaction was carried out for 10 min at 37° C. and terminated by addition of TCA (10%, 100 μl). Reaction mix was collected on a Whatman GF/B filter using a vacuum filtration manifold. This filter was washed 3 times with 5% TCA followed by 2 washes with ethanol, air dried, and read using a liquid scintillation counter (TopCount NXT) using MicroScint O. IC50 values were calculated and analyzed using ToolSet (4-parameter plot) and depicted herein.

Where a name gives a salt, the structure may show the parent alone.

As usually defined, the IC50 is the point on the concentration scale where inhibition reaches its midpoint. As for `O=C(C[C@H]1NCCC[C@@H]1O)Cn1cnc2cccc(-c3ccc(F)c(F)c3)c2c1=O` [Example 27, 5-(3,4-Difluorophenyl)-3-{3-[(2R,3S)-3-hydroxypiperidin-2-yl]-2-oxopropyl}quinazolin-4(3H)-one hydrochloride], the IC50 stood at 0.006 µM.

Consider `O=C(C[C@H]1NCCC[C@@H]1O)Cn1cnc2cccc(-c3cccnc3)c2c1=O` [Example 28, 3-{3-[(2R,3S)-3-Hydroxypiperidin-2-yl]-2-oxopropyl}-5-(pyridin-3-yl)quinazolin-4(3H)-one dihydrochloride], for which the IC50 is 0.006 µM.

As for `Cc1ccc(C(F)(F)F)c2c(=O)n(CC(=O)C[C@H]3NCCC[C@@H]3O)cnc12` [Example 29, 3-{3-[(2R,3S)-3-Hydroxypiperidin-2-yl]-2-oxopropyl}-8-methyl-5-(trifluoromethyl)quinazolin-4(3H)-one hydrochloride], the IC50 was determined as 0.313 µM.

For `Cc1cc(F)cc2c(=O)n(C[C@@H](O)C[C@H]3NCCC[C@@H]3O)cnc12` [Example 34, 6-Fluoro-3-{(S)-2-hydroxy-3-[(2R,3S)-3-hydroxypiperidin-2-yl]propyl}-8-methylquinazolin-4(3H)-one hydrochloride], the half-inhibitory concentration (IC50) stood at 0.183 µM.

For `Cl.[2H]C([2H])([2H])c1cc(Cl)cc2c(=O)n(C[C@@H](O)C[C@H]3NCCC[C@@H]3O)cnc12` [Example 35, 6-Chloro-3-{(S)-2-hydroxy-3-[(2R,3S)-3-hydroxypiperidin-2-yl]propyl}-8-(methyl-d3)quinazolin-4(3H)-one hydrochloride], the half-inhibitory concentration (IC50) stood at 0.032 µM.

For the compound `Cc1c(Cl)ccc2c(=O)n(C[C@@H](O)C[C@H]3NCCC[C@@H]3O)cnc12` [Example 36, 7-Chloro-3-{(S)-2-hydroxy-3-[(2R,3S)-3-hydroxypiperidin-2-yl]propyl}-8-methylquinazolin-4(3H)-one hydrochloride], the IC50 turned out to be 0.429 µM.

On to `Cc1cc(Br)cc2c(=O)n(C[C@@H](O)C[C@H]3NCCC[C@@H]3O)cnc12` [Example 37, 6-Bromo-3-{(S)-2-hydroxy-3-[(2R,3S)-3-hydroxypiperidin-2-yl]propyl}-8-methylquinazolin-4(3H)-one hydrochloride], for which the IC50 was 0.062 µM.

Turning to `CCc1cc(Cl)cc2c(=O)n(C[C@@H](O)C[C@H]3NCCC[C@@H]3O)cnc12` [Example 38, 6-Chloro-8-ethyl-3-{(S)-2-hydroxy-3-[(2R,3S)-3-hydroxypiperidin-2-yl]propyl}quinazolin-4(3H)-one hydrochloride], the half-inhibitory concentration (IC50) amounted to 0.506 µM.

As for `Cc1cc(C)c2ncn(C[C@@H](O)C[C@H]3NCCC[C@@H]3O)c(=O)c2c1` [Example 39, 3-{(S)-2-Hydroxy-3-[(2R,3S)-3-hydroxypiperidin-2-yl]propyl}-6,8-dimethylquinazolin-4(3H)-one hydrochloride], the IC50 was 0.158 µM.

`CCc1cc(C)c2ncn(C[C@@H](O)C[C@H]3NCCC[C@@H]3O)c(=O)c2c1` [Example 41, 6-Ethyl-3-{(S)-2-hydroxy-3-[(2R,3S)-3-hydroxypiperidin-2-yl]propyl}-8-methylquinazolin-4(3H)-one hydrochloride]: the IC50 came out at 0.023 µM.

In the case of `Cc1cc(OC(F)(F)F)cc2c(=O)n(C[C@@H](O)C[C@H]3NCCC[C@@H]3O)cnc12` [Example 42, 3-{(S)-2-Hydroxy-3-[(2R,3S)-3-hydroxypiperidin-2-yl]propyl}-8-methyl-6-(trifluoromethoxy)quinazolin-4(3H)-one hydrochloride], the IC50 was 0.02 µM.

On to `Cc1cc(S(C)(=O)=O)cc2c(=O)n(C[C@@H](O)C[C@H]3NCCC[C@@H]3O)cnc12` [Example 43, 3-{(S)-2-Hydroxy-3-[(2R,3S)-3-hydroxypiperidin-2-yl]propyl}-8-methyl-6-(methylsulfonyl)quinazolin-4(3H)-one hydrochloride], for which the IC50 was 0.038 µM.

For `Cc1cc(C(F)(F)F)cc2c(=O)n(C[C@@H](O)C[C@H]3NCCC[C@@H]3O)cnc12` [Example 44, 3-{(S)-2-Hydroxy-3-[(2R,3S)-3-hydroxypiperidin-2-yl]propyl}-8-methyl-6-trifluoromethyl)quinazolin-4(3H)-one hydrochloride], the IC50 was found to be 0.02 µM.

With `Cc1cc(C(C)C)cc2c(=O)n(C[C@@H](O)C[C@H]3NCCC[C@@H]3O)cnc12` [Example 45, 3-{(S)-2-Hydroxy-3-[(2R,3S)-3-hydroxypiperidin-2-yl]propyl}-6-isopropyl-8-methylquinazolin-4(3H)-one hydrochloride], the IC50 was determined as 0.021 µM.

With `Cc1cc(C2CC2)cc2c(=O)n(C[C@@H](O)C[C@H]3NCCC[C@@H]3O)cnc12` [Example 46, 6-Cyclopropyl-3-{(S)-2-hydroxy-3-[(2R,3S)-3-hydroxypiperidin-2-yl]propyl}-8-methylquinazolin-4(3H)-one hydrochloride], the IC50 worked out at 0.034 µM.

With `Cc1cc(C#N)cc2c(=O)n(C[C@@H](O)C[C@H]3NCCC[C@@H]3O)cnc12` [Example 47, 3-{(S)-2-Hydroxy-3-[(2R,3S)-3-hydroxypiperidin-2-yl]propyl}-8-methyl-4-oxo-3,4-dihydroquinazoline-6-carbonitrile hydrochloride], the IC50 was 0.235 µM.

In the case of `Cl.O=c1c2c(-c3cccc(F)c3)cccc2ncn1C[C@@H](O)C[C@H]1NCCC[C@@H]1O` [Example 49, 5-(3-Fluorophenyl-3-{(S)-2-hydroxy-3-[(2R,3S)-3-hydroxypiperidin-2-yl]propyl}quinazolin-4(3H)-one hydrochloride], the IC50 stood at 0.041 µM.

As to `O=c1c2cc(-c3cccc(F)c3)ccc2ncn1C[C@@H](O)C[C@H]1NCCC[C@@H]1O` [Example 50, 6-(3-Fluorophenyl)-3-{(S)-2-hydroxy-3-[(2R,3S)-3-hydroxypiperidin-2-yl]propyl}quinazolin-4(3H)-one hydrochloride], the IC50 turned out to be 0.014 µM.

On to `O=c1c2cc(-c3cccc(Cl)c3)ccc2ncn1C[C@@H](O)C[C@H]1NCCC[C@@H]1O` [Example 51, 6-(3-Chlorophenyl)-3-{(S)-2-hydroxy-3-[(2R,3S)-3-hydroxypiperidin-2-yl]propyl}quinazolin-4(3H)-one hydrochloride], for which the IC50 was determined as 0.023 µM.

Consider `O=c1c2cc(-c3cccc(C(F)(F)F)c3)ccc2ncn1C[C@@H](O)C[C@H]1NCCC[C@@H]1O` [Example 52, 3-{(S)-2-hydroxy-3-[(2R,3S)-3-hydroxypiperidin-2-yl]propyl}-6-(3-(trifluoromethyl)phenyl)quinazolin-4(3H)-one hydrochloride], for which the IC50 is 0.04 µM.

As to `Cc1cc(-c2cccc(F)c2)cc2c(=O)n(C[C@@H](O)C[C@H]3NCCC[C@@H]3O)cnc12` [Example 53, 6-(3-Fluorophenyl)-3-{(S)-2-hydroxy-3-[(2R,3S)-3-hydroxypiperidin-2-yl]propyl}-8-methylquinazolin-4(3H)-one hydrochloride], the IC50 was found to be 0.009 µM.

In the case of `Cc1cc(-c2cccc(C(F)(F)F)c2)cc2c(=O)n(C[C@@H](O)C[C@H]3NCCC[C@@H]3O)cnc12` [Example 54, 3-{(S)-2-Hydroxy-3-[(2R,3S)-3-hydroxypiperidin-2-yl]propyl}-8-methyl-6-(3-(trifluoromethyl)phenyl)quinazolin-4(3H)-one hydrochloride], the IC50 turned out to be 0.031 µM.

With `Cc1cc(-c2cccnc2)cc2c(=O)n(C[C@@H](O)C[C@H]3NCCC[C@@H]3O)cnc12` [Example 55, 3-{(S)-2-Hydroxy-3-[(2R,3S)-3-hydroxypiperidin-2-yl]propyl}-8-methyl-6-(pyridin-3-yl)quinazolin-4(3H)-one dihydrochloride], the IC50 came to 0.011 µM.

For the compound `Cc1cc(-c2ccc(F)c(F)c2)cc2c(=O)n(C[C@@H](O)C[C@H]3NCCC[C@@H]3O)cnc12` [Example 56, 6-(3,4-Difluorophenyl)-3-{(S)-2-hydroxy-3-[(2R,3S)-3-hydroxypiperidin-2-yl]propyl}-8-methylquinazolin-4(3H)-one hydrochloride], the IC50 came to 0.004 µM.
